Structures are written as SMILES.

These results are taken from patent US8604048B2, “Pyridocarbazole type compounds and applications thereof” (Centre National de la Recherche Scientifique, priority 2009, dated 2013).

In series [1] the target is T1, recombinant human LIMK1 (Homo sapiens, UniProt P53667).
T1 construct: 6His (N); purchased Millipore 14-656
In words: LIMK1 inhibition reversibility assay (size-exclusion chromatography). To be noted: 2 μM compound, input vs flow-through after size-exclusion chromatography. In kind it is biochemical. The protocol:
N-terminal 6H s-tagged recombinant human LIMK1 (Millipore #14-656, 62.5 ng) was incubated with […] Compound 1 (or equivalent amount of DMSO) for 10 minutes at 4° C. in a final volume of 100 μL. Size-exclusion chromatography of this mixture was then performed using 1 ml Biospin P-6 column (Biorad, equilibrated in 20 mM MOPS pH=7.0, 1 mM EDTA, 0.01% NP-40, 5% glycerol, 0.1% β-mercaptoethanol, 1 mg·ml^−1 Bovine Serum Albumin). LIMK1 kinase activity in input and flow-through were then assayed by radiometric LIMK1 kinase assay.
LIMK1 inhibition reversibility was assayed in vitro, in the conditions of Example 2, in the presence of 2 μM Compound 1 (H06), prior (‘input’) or after size-exclusion chromatography (‘flow-through’). Error bars represent standard error mean.

Series [2] deals with microtubules of HeLa cells. Description: Stability of microtubules at low temperature (4° C.). In kind it is cell-based, Human. To be noted: 2 h with compound then 30 minutes at 4° C. Here is the method:
FIG. 3 represents the effect of the Compound 1 of the invention on the stability of microtubules at low temperature. The HeLa cells are incubated with paclitaxel or without, with the Compound 1 of the invention, for 2 h, then exposed for 30 minutes at 4° C. The amount of tubulin in the cells treated with the Compound 1 of the invention is measured with a microplate reader, then reported as a percentage of the amount of tubulin measured in the wells containing the cells treated with paclitaxel (100%);
In the living cell, microtubules are dynamic structures, which oscillate between assembling and disassembling phases. Various types of tests may be carried out in order to assess the stabilizing effect of the molecules on the microtubule network. Thus, the binding of paclitaxel to the microtubules, or the binding of stabilizing proteins such as STOP proteins (Bosc et al., 2003) may protect the microtubule network from a depolymerization induced by an incubation of the cells at 4° C. Furthermore, molecules capable of slowing down the dynamics of the microtubules may be identified by analyzing the resistance of cell microtubules to a depolymerization induced by nocodazole. In the absence of a stabilizing compound, the microtubules depolymerize in the presence of nocodazole (FIG. 2). […]

The test system of series [3] is mitochondria of HeLa cells. In words: Effect on location and morphology of the mitochondria (MitoTracker staining). To be noted: 2 h of treatment at 25 μM. The series is classed as cell-based, Human. Here is the method:
As for tubulin staining, the cells are grown on glass coverslips and incubated at 37° C. with 5% CO2. Three days after seeding, MitoTracker® Red CMXRos (Molecular Probes, Invitrogen) is added to the culture medium in order to reach a final concentration of 250 nM. The cells are then incubated for 30 minutes at 37° C. with 5% CO2. This marker passively diffuses through the plasma membrane and accumulates into the active mitochondria. After elimination of the medium, the cells are washed with warm medium then fixed by addition of a solution of PBS/3.7% formaldehyde for 30 minutes at 37° C. The cells are rinsed with PBS, then can be permeabilized with a solution of PBS/0.2% Triton X100 for 15 minutes at room temperature if other immunofluorescence staining are needed.

The test system of series [4] is microtubules of HeLa cells. Description: Stability of the microtubules in cells, qualitative double-blind evaluation using a microscope. To be noted: general statement. The series is classed as cell-based, Human. Here is the method:
6. a step of analysis of the effect of the compound to be tested on the dynamics of the microtubule network. For this, HeLa cells are incubated for 2 h with the compound to be tested, then optionally treated with 10 μM nocodazole for 30 minutes.
Cells grown for two days on glass coverslips, were incubated 3 minutes at 37° C. with or without OPT buffer (Pipes 80 mM, EGTA 1 mM, MgCl 1 mM, Triton X-100 0.5% and glycerol 10% pH 6.8), and then fixed in methanol previously maintained at −20° C. for 10 minutes. The cells are then washed with PBS/0.1% Tween® 20 and incubated for 15 minutes minimum at room temperature with the appropriate primary antibodies (cf. the antibodies from Table III) diluted in a solution of PBS/0.3% BSA/0.02% NaN3. The cells are then washed 3 times with PBS/0.1% Tween® 20. They are incubated for 15 minutes at room temperature with a solution of secondary antibodies (cf. the antibodies from Table IV) and of Hoechst at a final concentration of 1 μg/ml, diluted in PBS/0.3% BSA/0.02% NaN3. […]
HeLa cells are seeded in black-bottomed black 96-well microplates (Greiner 655086) by distributing 90 μl per well of a cell solution containing 40 000 cells/ml, and incubated at 37° C. with 5% CO2. […] The various fluorescence intensities are measured using the FLUOstar OPTIMA reader. […]

T1 sequence (P53667 whole entry): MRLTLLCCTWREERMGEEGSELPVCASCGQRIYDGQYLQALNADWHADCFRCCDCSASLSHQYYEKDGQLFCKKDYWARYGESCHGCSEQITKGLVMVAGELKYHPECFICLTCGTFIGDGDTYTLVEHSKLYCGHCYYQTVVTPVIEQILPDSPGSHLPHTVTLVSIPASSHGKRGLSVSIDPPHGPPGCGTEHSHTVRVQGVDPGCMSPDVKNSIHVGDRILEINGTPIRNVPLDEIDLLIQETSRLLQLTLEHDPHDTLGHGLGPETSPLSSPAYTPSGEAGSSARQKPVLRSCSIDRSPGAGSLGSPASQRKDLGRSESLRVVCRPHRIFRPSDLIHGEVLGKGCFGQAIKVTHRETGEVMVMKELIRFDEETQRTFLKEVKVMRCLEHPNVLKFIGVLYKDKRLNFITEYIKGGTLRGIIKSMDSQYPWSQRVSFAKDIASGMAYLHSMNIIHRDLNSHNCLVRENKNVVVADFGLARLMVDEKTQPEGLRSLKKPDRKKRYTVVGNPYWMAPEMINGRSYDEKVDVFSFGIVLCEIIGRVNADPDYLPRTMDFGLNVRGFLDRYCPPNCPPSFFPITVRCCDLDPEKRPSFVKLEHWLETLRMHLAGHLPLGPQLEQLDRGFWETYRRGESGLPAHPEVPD

Regarding `Cc1c2cc[nH]c(=O)c2c(C)c2c1[nH]c1ccc(OC(=O)c3ccccc3)cc12` [Compound 1, 9-benzoyloxy-5,11-dimethyl-2H,6H-pyrido[4,3-b]carbazol-1-one], the “Reversibility of LIMK1 inhibition in vitro” value in series [1] is “reversible”. In series [2], the “Protection of microtubules from cold-induced depolymerization” value was “not able to protect the microtubules”. For the same compound, the “Mitochondrial phenotype of sodium azide type” value in series [3] is “does not induce the mitochondrial phenotype”.
As for `Cc1c2ccncc2c(C)c2c1[nH]c1ccccc12` [ellipticine], the “Effect on the stabilization of cell microtubules” value in series [4] was “does not have any effect”.
